Assay results: US20260285850A1, “SUBSTITUTED OXAZOLIDINONES AND IMIDAZOLINONES AS HERBICIDES” (FMC CORPORATION, priority 2023, published 2026)

Experiments:
Format in all cases: in vivo
[1] = tested on: ryegrass, Italian (italian ryegrass, Lolium multiflorum); test: Test A postemergence application, visual injury rating 0-100; conditions: Postemergence
How it was run: (§1)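 Scale 0–100 (no effect to complete control), visual, versus untreated controls, read 10 days after application. Application: preemergence directed spray onto seeded loam–sand soil, or postemergence to young plants; formulation in non-phytotoxic solvent with surfactant.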

kochia (Bassia scoparia) [2] = test: as above; conditions: Postemergence
How it was run: as §1

[3] = tested on: blackgrass (Alopecurus myosuroides); test: as above; conditions: Postemergence
How it was run: as §1

[4] = tested on: oat, wild (wild oat, Avena fatua); test: as above; conditions: Postemergence
How it was run: as §1

corn (Zea mays) [5] = test: as above; conditions: Postemergence
How it was run: as §1

soybean (Glycine max) [6] = test: as above; conditions: Postemergence
How it was run: as §1

[7] = tested on: green foxtail (Setaria viridis); test: as above; conditions: Postemergence
How it was run: as §1

[8] = tested on: palmer (palmer amaranth, palmer pigweed, Amaranthus palmeri); test: as above; conditions: Postemergence
How it was run: as §1

[9] = tested on: horseweed (Erigeron canadensis); test: as above; conditions: Postemergence
How it was run: as §1

[10] = tested on: wheat (Triticum aestivum); test: as above; conditions: Postemergence
How it was run: as §1

[11] = tested on: ragweed (common ragweed, Ambrosia artemisiifolia); test: as above; conditions: Postemergence
How it was run: as §1

[12] = tested on: barnyardgrass (Echinochloa crus-galli); test: as above; conditions: Postemergence
How it was run: as §1

[13] = tested on: galium (catchweed bedstraw, Galium aparine); test: as above; conditions: Postemergence
How it was run: as §1

[14] = tested on: ryegrass, Italian (italian ryegrass, Lolium multiflorum); test: Test A preemergence soil spray, visual injury rating 0-100; conditions: 10 days, 0 = no effect, 100 = complete control
How it was run: as §1

kochia (Bassia scoparia) [15] = test: as above; conditions: 10 days, 0 = no effect, 100 = complete control
How it was run: as §1

[16] = tested on: blackgrass (Alopecurus myosuroides); test: as above; conditions: 10 days, 0 = no effect, 100 = complete control
How it was run: as §1

[17] = tested on: oat, wild (wild oat, Avena fatua); test: as above; conditions: 10 days, 0 = no effect, 100 = complete control
How it was run: as §1

corn (Zea mays) [18] = test: as above; conditions: 10 days, 0 = no effect, 100 = complete control
How it was run: as §1

soybean (Glycine max) [19] = test: as above; conditions: 10 days, 0 = no effect, 100 = complete control
How it was run: as §1

[20] = tested on: green foxtail (Setaria viridis); test: as above; conditions: 10 days, 0 = no effect, 100 = complete control
How it was run: as §1

[21] = tested on: palmer (palmer amaranth, palmer pigweed, Amaranthus palmeri); test: as above; conditions: 10 days, 0 = no effect, 100 = complete control
How it was run: as §1

[22] = tested on: wheat (Triticum aestivum); test: as above; conditions: 10 days, 0 = no effect, 100 = complete control
How it was run: as §1

[23] = tested on: ragweed (common ragweed, Ambrosia artemisiifolia); test: as above; conditions: 10 days, 0 = no effect, 100 = complete control
How it was run: as §1

[24] = tested on: barnyardgrass (Echinochloa crus-galli); test: as above; conditions: 10 days, 0 = no effect, 100 = complete control
How it was run: as §1

[25] = tested on: ducksalad (Heteranthera limosa); test: Test B flooded paddy test, visual plant response rating 0-100; conditions: 250 g ai/ha, Flood, applied to paddy water, evaluated after 13 days
How it was run: (§2)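 Compounds applied to standing paddy water (3 cm above soil, maintained for the test duration) on 2-leaf-stage plants; visual rating vs controls at 13 days, greenhouse.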

[26] = tested on: sedge, umbrella (small-flower umbrella sedge, Cyperus difformis); test: as above; conditions: 250 g ai/ha, Flood, applied to paddy water, evaluated after 13 days
How it was run: as §2

[27] = tested on: barnyardgrass (Echinochloa crusgalli); test: as above; conditions: 250 g ai/ha, Flood, applied to paddy water, evaluated after 13 days
How it was run: as §2

rice (Oryza sativa) = test: as above; conditions: 250 g ai/ha, Flood, applied to paddy water, evaluated after 13 days
How it was run: as §2

[28] = 31 g ai/ha, greenhouse 10 days, 0 no effect, 100 complete control
[29] = 125 g ai/ha, 10 days, 0 is no effect, 100 is complete control

COC(=O)COC(=O)C1C=CC(NC(=O)C2(C)CN(c3cc(Cl)cc(Cl)c3)C(=O)O2)C1 (stereo not shown) [Compound 65]
Ryegrass, Italian plant response rating (0 to 100 scale) [1, 28]: 100
Ryegrass, Italian plant response rating (0 to 100 scale) [1, 29]: 100
Kochia plant response rating (0 to 100 scale) (kochia (Bassia scoparia) [2]; [28]): 80
Kochia plant response rating (0 to 100 scale) (kochia (Bassia scoparia) [2]; [29]): 90
Blackgrass plant response rating (0 to 100 scale) [3, 28]: 90
Blackgrass plant response rating (0 to 100 scale) [3, 29]: 100
Oat, Wild plant response rating (0 to 100 scale) [4, 28]: 90
Oat, Wild plant response rating (0 to 100 scale) [4, 29]: 90
Corn plant response rating (0 to 100 scale) (corn (Zea mays) [5]; [28]): 100
Corn plant response rating (0 to 100 scale) (corn (Zea mays) [5]; [29]): 100
Soybean plant response rating (0 to 100 scale) (soybean (Glycine max) [6]; [28]): 80
Soybean plant response rating (0 to 100 scale) (soybean (Glycine max) [6]; [29]): 80
Foxtail, Green plant response rating (0 to 100 scale) [7, 28]: 90
Foxtail, Green plant response rating (0 to 100 scale) [7, 29]: 90
Amaranth, Palmer / Pigweed, Palmer plant response rating (0 to 100 scale) [8, 28]: 90
Amaranth, Palmer / Pigweed, Palmer plant response rating (0 to 100 scale) [8, 29]: 90
Horseweed plant response rating (0 to 100 scale) [9, 28]: 70
Horseweed plant response rating (0 to 100 scale) [9, 29]: 70
Wheat plant response rating (0 to 100 scale) [10, 28]: 90
Wheat plant response rating (0 to 100 scale) [10, 29]: 90
Ragweed plant response rating (0 to 100 scale) [11, 28]: 80
Ragweed plant response rating (0 to 100 scale) [11, 29]: 80
Barnyardgrass plant response rating (0 to 100 scale) [12, 28]: 100
Barnyardgrass plant response rating (0 to 100 scale) [12, 29]: 100
Galium plant response rating (0 to 100 scale) [13, 28]: 80
Galium plant response rating (0 to 100 scale) [13, 29]: 90
Ryegrass, Italian plant response rating (0-100) ([14]; 31 g ai/ha): 70
Ryegrass, Italian plant response rating (0 to 100 scale) ([14]; 125 g ai/ha): 90
Kochia plant response rating (0-100) (kochia (Bassia scoparia) [15]; 31 g ai/ha): 10
Kochia plant response rating (0 to 100 scale) (kochia (Bassia scoparia) [15]; 125 g ai/ha): 10
Blackgrass plant response rating (0-100) ([16]; 31 g ai/ha): 50
Blackgrass plant response rating (0 to 100 scale) ([16]; 125 g ai/ha): 70
Oat, Wild plant response rating (0-100) ([17]; 31 g ai/ha): 20
Oat, Wild plant response rating (0 to 100 scale) ([17]; 125 g ai/ha): 80
Corn plant response rating (0-100) (corn (Zea mays) [18]; 31 g ai/ha): 0
Corn plant response rating (0 to 100 scale) (corn (Zea mays) [18]; 125 g ai/ha): 70
Soybean plant response rating (0-100) (soybean (Glycine max) [19]; 31 g ai/ha): 10
Soybean plant response rating (0 to 100 scale) (soybean (Glycine max) [19]; 125 g ai/ha): 70
Foxtail, Green plant response rating (0-100) ([20]; 31 g ai/ha): 90
Foxtail, Green plant response rating (0 to 100 scale) ([20]; 125 g ai/ha): 90
Amaranth, Palmer plant response rating (0-100) ([21]; 31 g ai/ha): 100
Amaranth, Palmer plant response rating (0 to 100 scale) ([21]; 125 g ai/ha): 100
Wheat plant response rating (0-100) ([22]; 31 g ai/ha): 50
Wheat plant response rating (0 to 100 scale) ([22]; 125 g ai/ha): 90
Ragweed plant response rating (0-100) ([23]; 31 g ai/ha): 10
Ragweed plant response rating (0 to 100 scale) ([23]; 125 g ai/ha): 70
Barnyardgrass plant response rating (0-100) ([24]; 31 g ai/ha): 90
Barnyardgrass plant response rating (0 to 100 scale) ([24]; 125 g ai/ha): 90
Plant response rating, Ducksalad (0 to 100 scale, 0 is no effect and 100 is complete control) [25]: 95
Plant response rating, Sedge, Umbrella (0 to 100 scale, 0 is no effect and 100 is complete control) [26]: 100
Plant response rating, Barnyardgrass (0 to 100 scale, 0 is no effect and 100 is complete control) [27]: 75
Plant response rating, Rice (0 to 100 scale, 0 is no effect and 100 is complete control) (rice (Oryza sativa)): 60
